{"source": "paper PMC10099431", "about": "(ACS Omega, 2023)", "key": {"[1]": {"test": "Equilibrium mole fraction solubility of RST in {PEG400", "assay_type": "physicochemical"}, "[2]": {"assay_type": "physicochemical", "settings": "for 100 δx1,3 (preferential solvation parameter of RST by PEG400) / D (derivative of the Gibbs energy of transfer) / G1,3 (Kirkwood–Buff integral, PEG400–RST) / G2,3 (Kirkwood–Buff integral, water–RST) / Vcor (correlation volume): 0.1 MPa"}}, "note": "Like-named read-outs stand apart in the source and are kept apart here.", "data": [{"compound": "CC(C)c1nc(N(C)S(C)(=O)=O)nc(-c2ccc(F)cc2)c1/C=C/[C@@H](O)C[C@@H](O)CC(=O)[O-].CC(C)c1nc(N(C)S(C)(=O)=O)nc(-c2ccc(F)cc2)c1/C=C/[C@@H](O)C[C@@H](O)CC(=O)[O-].[Ca+2]", "note": "[RST, (E)-7-[4-(4-fluorophenyl)-6-isopropyl-2-[methyl(methylsulfonyl)amino]pyrimidin-5-yl]-(3R,5S)-3,5-dihydroxyhept-6-enoic acid, calcium salt (2:1)]", "values": [{"measurement": "solubility at 3 days", "setting": "[1]; PEG400", "value": 6500, "unit": "µg/mL"}, {"measurement": "solubility at 3 days", "setting": "[1]; PEG400 + water cosolvent mixture", "value": 4140, "unit": "µg/mL"}, {"measurement": "molecular radius r3", "setting": "[2]; calculated from molar volume", "value": 0.5, "unit": "nm"}, {"measurement": "100 δx1,3 (preferential solvation parameter of RST by PEG400)", "setting": "[2]; x1 = 0.00, 298.15 K", "value": 0.00}, {"measurement": "D (derivative of the Gibbs energy of transfer)", "setting": "[2]; x1 = 0.00, 298.15 K", "value": "–328.34 kJ·mol^–1"}, {"measurement": "G1,3 (Kirkwood–Buff integral, PEG400–RST)", "setting": "[2]; x1 = 0.00, 298.15 K", "value": "–2707.6 cm^3·mol^–1"}, {"measurement": "G2,3 (Kirkwood–Buff integral, water–RST)", "setting": "[2]; x1 = 0.00, 298.15 K", "value": "–313.7 cm^3·mol^–1"}, {"measurement": "Vcor (correlation volume)", "setting": "[2]; x1 = 0.00, 298.15 K", "value": 1163, "unit": "cm^3·mol^–1"}, {"measurement": "100 δx1,3 (preferential solvation parameter of RST by PEG400)", "setting": "[2]; x1 = 0.05, 298.15 K", "value": 0.01}, {"measurement": "D (derivative of the Gibbs energy of transfer)", "setting": "[2]; x1 = 0.05, 298.15 K", "value": "–31.52 kJ·mol^–1"}, {"measurement": "G1,3 (Kirkwood–Buff integral, PEG400–RST)", "setting": "[2]; x1 = 0.05, 298.15 K", "value": "–488.9 cm^3·mol^–1"}, {"measurement": "G2,3 (Kirkwood–Buff integral, water–RST)", "setting": "[2]; x1 = 0.05, 298.15 K", "value": "–491.2 cm^3·mol^–1"}, {"measurement": "Vcor (correlation volume)", "setting": "[2]; x1 = 0.05, 298.15 K", "value": 1589, "unit": "cm^3·mol^–1"}, {"measurement": "100 δx1,3 (preferential solvation parameter of RST by PEG400)", "setting": "[2]; x1 = 0.10, 298.15 K", "value": 0.31}, {"measurement": "D (derivative of the Gibbs energy of transfer)", "setting": "[2]; x1 = 0.10, 298.15 K", "value": "–9.90 kJ·mol^–1"}, {"measurement": "G1,3 (Kirkwood–Buff integral, PEG400–RST)", "setting": "[2]; x1 = 0.10, 298.15 K", "value": "–358.4 cm^3·mol^–1"}, {"measurement": "G2,3 (Kirkwood–Buff integral, water–RST)", "setting": "[2]; x1 = 0.10, 298.15 K", "value": "–412.8 cm^3·mol^–1"}, {"measurement": "Vcor (correlation volume)", "setting": "[2]; x1 = 0.10, 298.15 K", "value": 1980, "unit": "cm^3·mol^–1"}, {"measurement": "100 δx1,3 (preferential solvation parameter of RST by PEG400)", "setting": "[2]; x1 = 0.15, 298.15 K", "value": 0.71}, {"measurement": "D (derivative of the Gibbs energy of transfer)", "setting": "[2]; x1 = 0.15, 298.15 K", "value": "–10.32 kJ·mol^–1"}, {"measurement": "G1,3 (Kirkwood–Buff integral, PEG400–RST)", "setting": "[2]; x1 = 0.15, 298.15 K", "value": "–353.1 cm^3·mol^–1"}, {"measurement": "G2,3 (Kirkwood–Buff integral, water–RST)", "setting": "[2]; x1 = 0.15, 298.15 K", "value": "–458.2 cm^3·mol^–1"}, {"measurement": "Vcor (correlation volume)", "setting": "[2]; x1 = 0.15, 298.15 K", "value": 2343, "unit": "cm^3·mol^–1"}, {"measurement": "100 δx1,3 (preferential solvation parameter of RST by PEG400)", "setting": "[2]; x1 = 0.20, 298.15 K", "value": 1.05}, {"measurement": "D (derivative of the Gibbs energy of transfer)", "setting": "[2]; x1 = 0.20, 298.15 K", "value": "–9.89 kJ·mol^–1"}, {"measurement": "G1,3 (Kirkwood–Buff integral, PEG400–RST)", "setting": "[2]; x1 = 0.20, 298.15 K", "value": "–346.4 cm^3·mol^–1"}, {"measurement": "G2,3 (Kirkwood–Buff integral, water–RST)", "setting": "[2]; x1 = 0.20, 298.15 K", "value": "–492.0 cm^3·mol^–1"}, {"measurement": "Vcor (correlation volume)", "setting": "[2]; x1 = 0.20, 298.15 K", "value": 2680, "unit": "cm^3·mol^–1"}, {"measurement": "100 δx1,3 (preferential solvation parameter of RST by PEG400)", "setting": "[2]; x1 = 0.25, 298.15 K", "value": 1.29}, {"measurement": "D (derivative of the Gibbs energy of transfer)", "setting": "[2]; x1 = 0.25, 298.15 K", "value": "–8.96 kJ·mol^–1"}, {"measurement": "G1,3 (Kirkwood–Buff integral, PEG400–RST)", "setting": "[2]; x1 = 0.25, 298.15 K", "value": "–339.9 cm^3·mol^–1"}, {"measurement": "G2,3 (Kirkwood–Buff integral, water–RST)", "setting": "[2]; x1 = 0.25, 298.15 K", "value": "–513.6 cm^3·mol^–1"}, {"measurement": "Vcor (correlation volume)", "setting": "[2]; x1 = 0.25, 298.15 K", "value": 2997, "unit": "cm^3·mol^–1"}, {"measurement": "100 δx1,3 (preferential solvation parameter of RST by PEG400)", "setting": "[2]; x1 = 0.30, 298.15 K", "value": 1.45}, {"measurement": "D (derivative of the Gibbs energy of transfer)", "setting": "[2]; x1 = 0.30, 298.15 K", "value": "–7.95 kJ·mol^–1"}, {"measurement": "G1,3 (Kirkwood–Buff integral, PEG400–RST)", "setting": "[2]; x1 = 0.30, 298.15 K", "value": "–334.6 cm^3·mol^–1"}, {"measurement": "G2,3 (Kirkwood–Buff integral, water–RST)", "setting": "[2]; x1 = 0.30, 298.15 K", "value": "–529.0 cm^3·mol^–1"}, {"measurement": "Vcor (correlation volume)", "setting": "[2]; x1 = 0.30, 298.15 K", "value": 3297, "unit": "cm^3·mol^–1"}, {"measurement": "100 δx1,3 (preferential solvation parameter of RST by PEG400)", "setting": "[2]; x1 = 0.35, 298.15 K", "value": 1.54}, {"measurement": "D (derivative of the Gibbs energy of transfer)", "setting": "[2]; x1 = 0.35, 298.15 K", "value": "–7.01 kJ·mol^–1"}, {"measurement": "G1,3 (Kirkwood–Buff integral, PEG400–RST)", "setting": "[2]; x1 = 0.35, 298.15 K", "value": "–330.5 cm^3·mol^–1"}, {"measurement": "G2,3 (Kirkwood–Buff integral, water–RST)", "setting": "[2]; x1 = 0.35, 298.15 K", "value": "–542.0 cm^3·mol^–1"}, {"measurement": "Vcor (correlation volume)", "setting": "[2]; x1 = 0.35, 298.15 K", "value": 3585, "unit": "cm^3·mol^–1"}, {"measurement": "100 δx1,3 (preferential solvation parameter of RST by PEG400)", "setting": "[2]; x1 = 0.40, 298.15 K", "value": 1.60}, {"measurement": "D (derivative of the Gibbs energy of transfer)", "setting": "[2]; x1 = 0.40, 298.15 K", "value": "–6.19 kJ·mol^–1"}, {"measurement": "G1,3 (Kirkwood–Buff integral, PEG400–RST)", "setting": "[2]; x1 = 0.40, 298.15 K", "value": "–327.6 cm^3·mol^–1"}, {"measurement": "G2,3 (Kirkwood–Buff integral, water–RST)", "setting": "[2]; x1 = 0.40, 298.15 K", "value": "–554.7 cm^3·mol^–1"}, {"measurement": "Vcor (correlation volume)", "setting": "[2]; x1 = 0.40, 298.15 K", "value": 3863, "unit": "cm^3·mol^–1"}, {"measurement": "100 δx1,3 (preferential solvation parameter of RST by PEG400)", "setting": "[2]; x1 = 0.45, 298.15 K", "value": 1.64}, {"measurement": "D (derivative of the Gibbs energy of transfer)", "setting": "[2]; x1 = 0.45, 298.15 K", "value": "–5.48 kJ·mol^–1"}, {"measurement": "G1,3 (Kirkwood–Buff integral, PEG400–RST)", "setting": "[2]; x1 = 0.45, 298.15 K", "value": "–325.4 cm^3·mol^–1"}, {"measurement": "G2,3 (Kirkwood–Buff integral, water–RST)", "setting": "[2]; x1 = 0.45, 298.15 K", "value": "–568.4 cm^3·mol^–1"}, {"measurement": "Vcor (correlation volume)", "setting": "[2]; x1 = 0.45, 298.15 K", "value": 4133, "unit": "cm^3·mol^–1"}, {"measurement": "δx1,3, highest preferential solvation parameter of RST by PEG400", "setting": "[2]; x1 = 0.5, 298.15 K", "value": "1.65 × 10^–2"}, {"measurement": "100 δx1,3 (preferential solvation parameter of RST by PEG400)", "setting": "[2]; x1 = 0.50, 298.15 K", "value": 1.65}, {"measurement": "D (derivative of the Gibbs energy of transfer)", "setting": "[2]; x1 = 0.50, 298.15 K", "value": "–4.88 kJ·mol^–1"}, {"measurement": "G1,3 (Kirkwood–Buff integral, PEG400–RST)", "setting": "[2]; x1 = 0.50, 298.15 K", "value": "–323.8 cm^3·mol^–1"}, {"measurement": "G2,3 (Kirkwood–Buff integral, water–RST)", "setting": "[2]; x1 = 0.50, 298.15 K", "value": "–584.0 cm^3·mol^–1"}, {"measurement": "Vcor (correlation volume)", "setting": "[2]; x1 = 0.50, 298.15 K", "value": 4396, "unit": "cm^3·mol^–1"}, {"measurement": "100 δx1,3 (preferential solvation parameter of RST by PEG400)", "setting": "[2]; x1 = 0.55, 298.15 K", "value": 1.64}, {"measurement": "D (derivative of the Gibbs energy of transfer)", "setting": "[2]; x1 = 0.55, 298.15 K", "value": "–4.36 kJ·mol^–1"}, {"measurement": "G1,3 (Kirkwood–Buff integral, PEG400–RST)", "setting": "[2]; x1 = 0.55, 298.15 K", "value": "–322.8 cm^3·mol^–1"}, {"measurement": "G2,3 (Kirkwood–Buff integral, water–RST)", "setting": "[2]; x1 = 0.55, 298.15 K", "value": "–601.8 cm^3·mol^–1"}, {"measurement": "Vcor (correlation volume)", "setting": "[2]; x1 = 0.55, 298.15 K", "value": 4652, "unit": "cm^3·mol^–1"}, {"measurement": "100 δx1,3 (preferential solvation parameter of RST by PEG400)", "setting": "[2]; x1 = 0.60, 298.15 K", "value": 1.61}, {"measurement": "D (derivative of the Gibbs energy of transfer)", "setting": "[2]; x1 = 0.60, 298.15 K", "value": "–3.92 kJ·mol^–1"}, {"measurement": "G1,3 (Kirkwood–Buff integral, PEG400–RST)", "setting": "[2]; x1 = 0.60, 298.15 K", "value": "–322.0 cm^3·mol^–1"}, {"measurement": "G2,3 (Kirkwood–Buff integral, water–RST)", "setting": "[2]; x1 = 0.60, 298.15 K", "value": "–621.8 cm^3·mol^–1"}, {"measurement": "Vcor (correlation volume)", "setting": "[2]; x1 = 0.60, 298.15 K", "value": 4901, "unit": "cm^3·mol^–1"}, {"measurement": "100 δx1,3 (preferential solvation parameter of RST by PEG400)", "setting": "[2]; x1 = 0.65, 298.15 K", "value": 1.55}]}]}
